In US11344601B2, “Tumor microenvironment-related target TAK1 and application thereof in inhibition of tumor” (Shanghai Institutes for Biological Sciences, Chinese …, priority 2017, dated 2022):

Experiments:
[1] = test system: prostate-derived stromal cell line PSC27 and epithelial cancer cell line PC3 xenograft tumors; test: Preclinical chemotherapy trial, subcutaneous PC3/PSC27 tissue-recombinant tumors, terminal tumor volume; type: in vivo, ICR-SCID mice
Experimental: All experimental mouse experiments were carried out in strict accordance with the relevant regulations of the Institutional animal care and use committee (IACUC) of the shanghai Institute of Life Sciences of the Chinese Academy of Sciences. ICR-SCID mice at an age of about 6 weeks (about 25 g in body weight) were used in this patent-related animal experiment. Stromal cells PSC27 and epithelial cells were mixed at a ratio of 1:4, with each implant containing 1.25×10^6 cells for tissue recombination. The transplant tumor was implanted into mice subcutaneously, and the animals were euthanized at the end of Week 8 after transplantation. The tumor volume was calculated according to the following formula: V=(π/6)×((l+w)/2)^3 (V, volume; l, length; w, width). Similarly, lung and breast cancer xenograft tumors were formed by tissue recombination with A549 (non-small cell lung cancer cell line) and W138 (lung fibroblast line), MDA-MB-231 (triple negative breast cancer cell line) and HBF1203 (breast fibroblast line), respectively.
In the preclinical chemotherapy trial, mice subcutaneously transplanted with tumors were fed standard experimental diet. After 2 weeks, the chemotherapeutics mitoxantrone (dose of 0.2 mg/kg) and/or SASP inhibitors (500 μl, dose of 10 mg/kg, RAD001, SB203580 and 5Z-7 were purchased from Tocris; LYTAK, purchased from Lilly Co ((Indianapolis, Ind.), 5 mg/kg) were administrated intraperitoneally. The timepoint was the first day of Week 3, 5, 7, and the whole course of treatment was composed of three cycles of administration, each cycle lasted for 2 weeks. After the course of treatment, mouse […] was collected for tumor measurement and histological analysis. Each mouse received cumulatively 0.6 mg mitoxantrone/kg body weight and 30 mg SASP inhibitor/kg body (15 mg/kg body weight for LYTAK1). Mice xenografted with lung cancer and breast cancer tumor received bleomycin (totally 0.3 mg/kg) and doxorubicin (totally 0.2 mg/kg), respectively. The timepoints and frequency were same as the administration of mitoxantrone. The chemotherapeutic trial was performed until the end of Week 8, and the mice were dissected immediately after death. The transplant tumors were collected and used for analysis in a pathological system.
In order to simulate clinical conditions as much as possible, the present inventor inoculated the subcutaneous site of immunodeficient mice with an admixture of prostate-derived stromal cell line PSC27 and epithelial cancer cell line PC3. The mice subsequently underwent a regimen of 8-week preclinical chemotherapy, which included three single- or double-drug treatments based on a series of pre-experimental data (FIGS. 64 and 65). In the absence of stromal cells, PC3 cells were still able to form tumors under screening pressure caused by chemotherapeutics, though their volumes were smaller than that generated in the case of concurrent inoculation of stromal cells and cancer cells. Such difference also objectively confirmed the tumor-promoting effect of the microenvironment (FIG. 66).

[2] = target: T1, TAK1 (Homo sapiens, UniProt O43318); test: IP, in vitro kinase assay and Western blot of TAK1 activation in damaged PSC27 stromal cells; type: cell-based
T1 construct: PSC27 cells were treated with bleomycin and cell lysates were subject to anti-p-TAK1-mediated IP precipitation; endogenous in cells; host or cells: PSC27 human prostate stromal cells
T1 sequence (O43318 1-606): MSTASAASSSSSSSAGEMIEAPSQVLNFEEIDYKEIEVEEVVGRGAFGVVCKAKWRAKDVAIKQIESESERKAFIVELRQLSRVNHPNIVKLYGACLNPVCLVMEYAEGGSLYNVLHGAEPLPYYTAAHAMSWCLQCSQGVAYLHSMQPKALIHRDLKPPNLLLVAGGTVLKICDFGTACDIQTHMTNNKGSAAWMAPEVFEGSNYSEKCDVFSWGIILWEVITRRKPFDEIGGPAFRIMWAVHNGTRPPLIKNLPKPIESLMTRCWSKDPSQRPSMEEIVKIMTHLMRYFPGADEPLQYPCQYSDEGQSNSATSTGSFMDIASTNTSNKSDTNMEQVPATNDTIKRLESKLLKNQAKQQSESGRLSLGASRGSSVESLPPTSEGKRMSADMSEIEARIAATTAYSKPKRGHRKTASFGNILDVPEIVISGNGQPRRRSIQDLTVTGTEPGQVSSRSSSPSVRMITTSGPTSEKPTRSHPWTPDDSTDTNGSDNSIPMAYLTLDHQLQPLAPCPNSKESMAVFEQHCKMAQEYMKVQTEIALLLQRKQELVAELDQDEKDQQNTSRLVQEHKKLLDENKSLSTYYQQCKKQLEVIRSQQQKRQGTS
Experimental: In the presence of the TAK1 inhibitor 5Z-7, PSC27 cells were treated with bleomycin and cell lysates were subject to anti-p-TAK1-mediated IP precipitation. IP products were analyzed by in vitro kinase assay, and MKK6 was used as TAK1 substrate. p38 phosphorylation was analyzed by Western blot with GAPDH as the loading control. In addition, IL-1α (20 ng/ml) was used to treat stromal cells and was further analyzed by similar IP and in vitro kinase assay.

[3] = test system: IL-8; test: IL-8 protein expression of damaged stromal cells (Western blot, ELISA); type: cell-based, human
Experimental: FIG. 15. The stromal cells were collected on Day 7 after bleomycin and/or 5Z-7 treatment. The lysates were analyzed by Western blot for their phosphorylation levels of ATM and TAK1, and activation of TAK1 downstream substrate JN K and p38. IL-8, a chemokine was used as a marker secreted factor of SASP, whose expression level was simultaneously analyzed. FIG. 33. The extracellular fluid released by each group of cells were tested by ELISA to determine the protein expression level of the secreted factor IL-8.

[4] = test system: NF-κB complex; test: NF-κB activation in bleomycin-treated stromal cells (nuclear translocation, luciferase reporter); type: cell-based, human
Experimental: FIG. 22. The stromal cells pre-transduced with the NF-κB transcriptional luciferase reporter vector were treated with bleomycin and/or RAD001. The cells were collected on Day 7 and detected for the fluorescence signal intensity of the reporter vector.
FIG. 32. Detection of NF-kB transcriptional activity based on the reporter vector. Stromal cells were treated with bleomycin along with the PI3K small molecule inhibitor LY294002 (1 μM), Akt inhibitor MK-2206 (100 nM), mTOR inhibitor RAD001 (50 nM), p38 inhibitor SB203580 (10 μM) and TAK1 inhibitor 5Z-7 (500 nM), respectively, and cell lysates were used for determining luciferase activity.
The […] vector pBABE-puro-IκBα-mut (Super repressor) containing two phosphorylated mutant sites of IKK at S32A and S34A on the IκBα protein encoding sequence were used for transfection of lentivirus-packing cell line phoenix. Lentiviruses were subsequently used to infect PSC27 stromal cell line, whereas 1 μg/ml puromycin was used to screen positive clones. As another method, 5 μm of the small molecule inhibitor Bay11-7082 (purchased from Selleck) was used for NF-κB activity control. Stromal cells were subsequently exposed to several different forms of cytotoxicity, with the resulting phenotype recorded in time, and the relevant gene expression analyzed. The resulted conditioned culture medium produced from cells processed in this way was collected for various detection of epithelial cells.
Even so, is TAK1 activated indirectly by upstream DDR signaling associated with activation of a core transcription factor, NF-κB complex involved in the broad-spectrum expression of the SASP? The NF-κB complex was previously reported to be mediated by mono-ubiquitination of IκB kinase subunit γ (IKKγ) in cytoplasm. After isolating nucleus from cytoplasmic proteins using a kit, the inventor finds that TAK1 phosphorylation is associated with nuclear translocation of p50 and p65, the two main subunits of NF-κB complex (FIG. 4).

COc1cc(O)c2c(c1)/C=C/C[C@H](O)[C@H](O)C(=O)/C=C\C[C@H](C)OC2=O [5Z-7, 5z-7-oxozeaenol]
effect on tumor growth ([1]; TAK1 inhibitor alone): does not appear to alter tumor growth trends | further decrease in terminal tumor volume ([1]; inhibitor combined with mitoxantrone (MIT) vs mitoxantrone alone (group 8 vs group 6), end of Week 8): 60% | activation of TAK1 in damaged stromal cells ([2]; bleomycin-treated PSC27, 500 nM 5Z-7, IP and in vitro kinase assay with MKK6): largely abolished | physical interaction between TAK1 and TRAF6 ([2]; p-TAK1 antibody IP after bleomycin): abolished | chemokine IL-8 protein levels induced by DNA damage ([3]; ELISA of extracellular fluid, bleomycin plus inhibitor): significantly reduced | protein expression level of IL-8 ([3]; Western blot, Day 7 after bleomycin and/or 5Z-7): significantly downregulated | NF-κB transcriptional activity (reporter vector) ([4]; bleomycin plus inhibitor, luciferase reporter): significantly reduced | phosphorylation of TAK1 and nuclear translocation of p50/p65 ([4]; bleomycin-treated stromal cells, cytosolic and nuclear proteins): significantly inhibited | inhibitory effect on NF-κB activation and IL-8 compared with the other inhibitors ([4]; vs LY294002, MK-2206, SB203580): stronger inhibitory effect
